Assay [1] concerns the target T1, human GLP-1 receptor (Homo sapiens, UniProt P43220). On the set-up: Dr. Timothy Kieffer (University of British Columbia); method as in Mapelli et al., 2009; Haque et al., 2010a. As to conditions: CHO cells stably overexpressing the human GLP-1 receptor; ref Mapelli et al., 2009; Haque et al., 2010a; read-out: EC50 (cAMP production); cited from earlier work.
For assay [2], the target named is T1, human GLP-1 receptor. As to the kind of experiment: Competitive binding (IC50) on HEK293-hGLP-1R cells with radioligand [Nle^14, [^125I]Tyr(3-I)^40]exendin-4. On the set-up: Dr. Timothy Kieffer (University of British Columbia); host or cells: HEK293. The conditions noted are these: w/ BSA (1% BSA); HEK293-hGLP-1R cells, 4 °C, 2 h, 0.41 nM radioligand; read-out: IC50 ± SD. How it is done:
Dr. Timothy Kieffer (University of British Columbia, Vancouver, Canada). Cells were cultivated in high glucose DMEM (25.0 mM D-glucose, 3.97 mM GlutaMAX; REF-number: 61965–026; Fisher Scientific GmbH, Schwerte, Germany) supplemented with 10% fetal bovine serum and 1 mM sodium pyruvate. Medium for stably transfected HEK293-hGLP-1R cells was constantly supplemented with 1 mg/mL Geneticin (G-418 Biochrom, Merck KgaA, Darmstadt, Germany) as selection antibiotic. The cell line was kept at 37 °C in a humidified 5% CO2 atmosphere. One day (24 ± 2 h) prior to all in vitro experiments, the cultivated HEK293-h-GLP-1R cells were harvested using a mixture of trypsin/ethylenediaminetetraacetic acid (0.05%/0.02%) in phosphate-buffered saline (PBS) (Gibco, Germany) and centrifuged at 1300 rpm (ca. 190×g) for 3 min at room temperature (Heraeus Megafuge 16, Thermo Fisher, Germany). After centrifugation, the supernatant was disposed and the cell pellet was resuspended in culture medium. Cells were counted with a Neubauer hemocytometer (Paul Marienfeld GmbH & Co. KG, Lauda-Königshofen, Germany) and seeded in 24-well plates. IC50 values were determined by transferring 1.50 × 10^5 cells/mL per well into 24-well plates.
Detailed information on affinity experiments is provided in the SI. In brief, competitive binding studies were determined on HEK293-hGLP-1R cells (1.50 × 10^5 cells in 1 mL/well) after incubation at 4 °C for 2 hours, using [^125I]Tyr(3-I)^40–3 (0.41 nM/well) as reference radioligand (n = 3).
Dr. Timothy J. Kieffer (University of British Columbia, Vancouver, Canada). Cells were cultivated in high glucose DMEM (25.0 mM D-glucose, 3.97 mM GlutaMAX; REF-number: 61965-026; Fisher Scientific GmbH, Schwerte, Germany) supplemented with 10% fetal bovine serum and 1 mM sodium pyruvate. Medium for stably transfected HEK293-hGLP-1R cells was constantly supplemented with 1 mg/mL Geneticin (G-418 Biochrom, Merck KgaA, Darmstadt, Germany) as selection antibiotic. The cell line was kept at 37 °C in a humidified 5% CO2 atmosphere. One day (24 ± 2 h) prior to all in vitro experiments, the cultivated cells were harvested using a mixture of trypsin/ethylenediaminetetraacetic acid (0.05%/0.02%) in phosphate-buffered saline (PBS) (Merck KgaA, Darmstadt, Germany) and centrifuged at 1300 rpm (ca. 190 × g) for 3 min at room temperature (Heraeus Megafuge 16, Thermo Fisher Scientific, Darmstadt, Germany). After centrifugation, the supernatant was disposed and the cell pellet was resuspended in culture medium. Cells were counted with a Neubauer hemocytometer (Paul Marienfeld GmbH & Co. KG, Lauda-Königshofen, Germany) and seeded in 24-well plates (Greiner Bio-One, Kremsmünster, Austria). IC50 values were determined by transferring 1.50 × 10^5 cells/mL per well into 24-well plates (Greiner Bio-One, Kremsmünster, Austria).
The culture medium was removed and the cells were washed with 500 µL of Hank’s balanced salt solution (HBSS) (Merck KGaA, Darmstadt, Germany), containing 1% bovine serum albumin (BSA) (Merck KGaA, Darmstadt, Germany). Afterwards, 200 µL of HBSS (1% BSA) were added to each well and equilibrated on ice (4 °C) for 15 min. 25 µL/well of either HBSS (1% BSA) (= control) or of solutions, containing the respective unlabeled ligand in increasing concentrations (10^-10 - 10^-4 M in HBSS) were added, followed by the addition of 25 µL of [Nle^14, [^125I]Tyr(3-I)^40]exendin-4 in HBSS (1% BSA) to each well. Experiments were carried out in triplicates for each concentration. The final concentrations of unlabeled ligand ranged from 10^-11 - 10^-5 M and the final radioligand concentration was 0.41 nM in all binding assays. The cells were incubated for two hours at 4 °C. Incubation was terminated by removal of the incubation medium. The cells were washed with 250 µL of HBSS (1% BSA) and the wash medium was combined with the respective supernatant. This fraction represents the amount of free radioligand. The cells were lysed by addition of 250 µL of 1 M aqueous NaOH. […]

Square brackets hold non-standard residues; d marks the D form. Peptide text beside a SMILES is read from it. Bip(2'-Et-4'-OMe) = CCc1cc(OC)ccc1-c1ccc(C[C@H](N)C(=O)O)cc1; αMePhe(2-F) = C[C@](N)(Cc1ccccc1F)C(=O)O; hPhe = N[C@@H](CCc1ccccc1)C(=O)O; Aib = CC(C)(N)C(=O)O

T1 sequence (P43220 24-463): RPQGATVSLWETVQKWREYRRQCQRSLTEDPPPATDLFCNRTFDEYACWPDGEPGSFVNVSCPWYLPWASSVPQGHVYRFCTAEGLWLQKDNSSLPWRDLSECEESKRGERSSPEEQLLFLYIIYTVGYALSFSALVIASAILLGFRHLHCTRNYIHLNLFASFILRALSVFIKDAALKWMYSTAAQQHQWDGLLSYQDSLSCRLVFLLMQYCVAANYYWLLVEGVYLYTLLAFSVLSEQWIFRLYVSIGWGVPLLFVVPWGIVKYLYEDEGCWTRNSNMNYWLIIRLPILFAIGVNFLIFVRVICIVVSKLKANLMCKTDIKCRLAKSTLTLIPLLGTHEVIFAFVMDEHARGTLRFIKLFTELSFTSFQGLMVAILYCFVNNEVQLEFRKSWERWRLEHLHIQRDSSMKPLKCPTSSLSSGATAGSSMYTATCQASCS

Take `CCc1cc(OC)ccc1-c1ccc(C[C@H](NC(=O)[C@H](CC(=O)O)NC(=O)[C@H](CO)NC(=O)[C@@H](NC(=O)[C@](C)(Cc2ccccc2F)NC(=O)[C@@H](NC(=O)CNC(=O)[C@H](CCC(=O)O)NC(=O)C(C)(C)NC(=O)[C@@H](N)Cc2c[nH]cn2)[C@@H](C)O)[C@@H](C)O)C(=O)N[C@@H](CCc2ccccc2)C(N)=O)cc1` [Peptide 1, H-L-His-Aib-L-Glu-Gly-L-Thr-L-(α-Me)Phe(2-F)-L-Thr-L-Ser-L-Asp-L-(2’-Et, 4’-OMe)BIP-L-homoPhe-NH2, reference compound] (H-H[Aib]EGT[αMePhe(2-F)]TSD[Bip(2'-Et-4'-OMe)][hPhe]-NH2): the EC50 (commonly the midpoint of the concentration-response curve) at human GLP-1 receptor [1] is 0.031 nM. The IC50 (in general, the concentration needed to halve the response being measured) on human GLP-1 receptor [2] was found to be 669 ± 242 nM.

The values above are taken from PMC8387526, “Small peptide-based GLP-1R ligands: an approach to reduce the kidney uptake of radiolabeled GLP-1R-targeting agents?” (EJNMMI Radiopharmacy and Chemistry, 2021).
